Like-named read-outs stand apart in the source and are kept apart here. Square brackets hold non-standard residues; d marks the D form. Peptide text beside a SMILES is read from it. Orn = NCCC[C@H](N)C(=O)O
Assays:
[1] = tested on: CQS P. falciparum 3D7; experiment: microbe, parasite or virus in culture; assay type: cell-based, Plasmodium falciparum
Experimental: (§1) The antimalarial assays were carried out according to the method of Nkhoma et al.. […] On the day of the assay, the parasitemia was determined following observation by light microscopy after Giemsa staining of a thin blood smear from the culture. The cultures at young trophozoite stage were diluted to 2% parasitemia and 2% hematocrit by addition of fresh RPMI medium and uninfected erythrocytes. This culture suspension was distributed in 96-well culture plates at 90 µL/well. […] Peptide solvent and medium (10 µL/well) was used as sterility control and in growth control and 10 μL 1.0 mM GS was used as positive control. Assays were carried out in at least three biological repeats each consisting of three technical repeats to ascertain reproducibility.
(§2) The culture suspension was frozen away at −20 °C until determination of the residual lactate dehydrogenase activity of the parasites by the Malstat assay, as adapted from Gomez et al..
(§3) For the Malstat assay, the plates were transferred to −80 °C for 1 h following overnight storage at −20 °C to ensure that all the suspensions in each well of the 96-well plate were frozen. The plates were then thawed at room temperature. The Malstat reagent consisted of 200 μL Triton X-100, 2 g L-lactic acid (substrate), 0.66 g Tris-HCl buffer and 0.011 g of 3-acetylpyridine adenine dinucleotide (APAD) (coenzyme for parasite lactate dehydrogenase) in 100 mL analytical quality water set to a pH of 9.0 [93]. […] A 15 µL aliquot of the thawed and properly mixed suspension from the assay plates was added to 100 µL of the Malstat reagent, followed by addition of 25 µL of the NBT/PES solution. The reaction mixtures were then incubated at room temperature in the dark for 30 min followed by spectrophotometric measurement of the absorbance of the reduced APAD at 620 nm using a Model 680 Microplate reader from BioRad.
(§4) The data obtained from spectrophotometric measurement of the plates following the lactate dehydrogenase (Malstat) assay were converted to percentage growth inhibition using the data analysis method described by Rautenbach et al.. The background was obtained from control wells in which the parasites were killed with 100 µM GS while total growth was from the wells that were not submitted to peptides. […] The percentage COS-1 cell death (CellTiter Blue™ assay) was similarly calculated from absorbance values.

[2] = tested on: CQR P. falciparum Dd2; experiment: microbe, parasite or virus in culture; assay type: cell-based, Plasmodium falciparum; settings: for IC50: 48 h, Malstat, ± SEM, read-out: IC50, CQR P. falciparum Dd2; for Resistance Index IC50Dd2/IC503D7: first value of cell; for Resistance Index IC50Dd2/IC50D10: second value of cell
Experimental: as §1, §2, §3, §4

[3] = tested on: CQI P. falciparum D10; settings: for nature of CQ-peptide interaction: at the lowest CQ ratio, D10
Experimental: In order to determine the nature of Trc-CQ interaction, IC50 values were derived from dose–response curves of fixed ratios of Trc and CQ for fractional inhibition concentration (FIC) determination according to an adaptation of the methods by Chawira and Warhust and Fivelman et al..
CQ at […] (2.0 µM) and 500.0 μM peptide were used to prepare doubling and quadrupling dilution ranges, respectively in supplemented RPMI-1640 culture medium used for culturing the P. falciparum, but lacking albumax II. These were then mixed in an chequerboard fashion to determine the 1:0; 0:1 1;1, 1:2; 1:5 and 1:10 ratios of CQ:peptide for combined IC50s. The CQ, peptide or drug:peptide combination (10 μL) was added to 90 μL of the cell suspensions, incubated for 48 h at 37 °C under an atmosphere of 3% CO2, 4% O2 and 93% N2 and analyzed for growth inhibition as previously described using the Malstat assay. The IC50 values and standard error of the mean for the various CQ-peptide combinations were determined from the dose–response curves plotted and analyzed using GraphPad Prism® 4.03 (GraphPad Software, San Diego, CA, USA). A minimum of three technical repeats and three biological repeats were carried out for each combination experiment.
Two fractional inhibition concentration (FIC) values were calculated for each of the five CQ-peptide combination ratios, one for CQ and the other for the peptide according to Equations (1) and (2) below from Bell:FICCQ = IC50([CQ] in combination)/IC50CQ ([CQ] alone)(1) FICPeptide = IC50 ([Peptide] in combination)/IC50Peptide ([Peptide] alone)(2)
The FIC values were used to compute the FIC index which is the sum of FICs of CQ and each peptide using Equation (3) below:FIC index = FICCQ + FICpeptide(3)
The magnitude of the FICI determined the nature of the CQ-peptide interaction as being either synergistic (FICI < 1.0), antagonistic (FICI > 1.0) or additive (FICI = 1.0) 64–66. […] The shape of the isobolograms also provided an indication of the nature of the interactive effect of CQ and the peptides with a concave curve for synergy, a linear line for an additive to non-interactive effect or convex curve for antagonism with deviation of the curves from the additivity line indicating the strength of the interactive effect.

[4] = Toxicity to COS-1 cells, CellTiter Blue viability; assay type: cell-based; settings: African green monkey, resazurin (CellTiter Blue), read-out: Toxicity LC50, COS Cells
Experimental: COS-1 cells were cultured in DMEM containing 0.9 g/L glucose, 0.12% NaHCO3, 10% fetal calf serum and 1% penicillin–streptomycin at 37 °C and under an atmosphere of 5% CO2 [95]. Twenty hours before the assay, the cells were transferred to 96-well plates at a density of 1.5 × 10^4 cells/well. The peptides from the dilution series were added to each well and incubated for 24 h. The cell viability was measured by adding 20 μL/well resazurin reagent (CellTiter Blue™), followed by four hours incubation at room temperature in the dark and measurement of the absorbance at 560 nm and 600 nm in the BioRad microplate reader.
The data obtained from spectrophotometric measurement of the plates following the lactate dehydrogenase (Malstat) assay were converted to percentage growth inhibition using the data analysis method described by Rautenbach et al.. The background was obtained from control wells in which the parasites were killed with 100 µM GS while total growth was from the wells that were not submitted to peptides. The background for the hemolysis evaluation was from wells in which the uninfected erythrocytes were lysed using 100 µM GS while growth control was from the wells with uninfected erythrocytes that received no peptides. The percentage COS-1 cell death (CellTiter Blue™ assay) was similarly calculated from absorbance values. All the dose–response assay data were evaluated using GraphPad Prism 4.03 (GraphPad Software, San Diego, CA, USA) followed by non-linear regression and sigmoidal curves were fitted (having variable slope and a constant difference of 100 between the top and bottom plateau). Following calculation of the 50% P. falciparum inhibitory concentration (IC50), 50% hemolytic concentration (HC50) and 50% lethal concentration (LC50) for COS-1 cells.

[5] = 48 h, Malstat, ± SEM, read-out: IC50, CQS P. falciparum 3D7
[6] = CQ:peptide ratio 1:2 at IC50, D10
[7] = CQ:peptide ratio 1:5 at IC50, D10
[8] = CQ:peptide ratio 1:10 at IC50, D10
[9] = CQ:peptide ratio 1:1 at IC50, D10

Structure (SMILES) | IC50 ([1]; CQS 3D7, 48 h) [nM] | IC50 [2] [nM] | Resistance Index IC50Dd2/IC503D7 [2] | Resistance Index IC50Dd2/IC50D10 [2] | nature of CQ-peptide interaction [3] | CC50 at 24 h [4] [nM] | IC50 [1, 5] [nM] | CQ FIC [3, 6] | CQ:Peptide FIC Index [3, 6] | Peptide FIC [3, 6] | CQ FIC [3, 7] | CQ:Peptide FIC Index [3, 7] | Peptide FIC [3, 7] | CQ FIC [3, 8] | CQ:Peptide FIC Index [3, 8] | Peptide FIC [3, 8] | CQ FIC [3, 9] | CQ:Peptide FIC Index [3, 9] | Peptide FIC [3, 9] | CQ:Peptide FIC Index ([3]; CQ:peptide ratio 1:1 at IC50, D10, listed as Tyrocidine A)
CC(C)C[C@@H]1NC(=O)[C@H](CCCN)NC(=O)[C@H](C(C)C)NC(=O)[C@H](Cc2ccccc2)NC(=O)[C@H](CCC(N)=O)NC(=O)[C@H](CC(N)=O)NC(=O)[C@@H](Cc2ccccc2)NC(=O)[C@H](Cc2ccccc2)NC(=O)[C@@H]2CCCN2C(=O)[C@@H](Cc2ccccc2)NC1=O [PhcA, phenycidine A] (cyclo(FV[Orn]L[dF]PF[dF]NQ)) | 23 ± 7 | 511 ± 96 | 22 | 10 | synergistic action | 8000 | – | – | – | – | – | – | – | – | – | – | – | – | – | –
CC(C)C[C@@H]1NC(=O)[C@H](CCCN)NC(=O)[C@H](C(C)C)NC(=O)[C@H](Cc2c[nH]c3ccccc23)NC(=O)[C@H](CCC(N)=O)NC(=O)[C@H](CC(N)=O)NC(=O)[C@@H](Cc2c[nH]c3ccccc23)NC(=O)[C@H](Cc2c[nH]c3ccccc23)NC(=O)[C@@H]2CCCN2C(=O)[C@@H](Cc2ccccc2)NC1=O [TpcC, tryptocidine C] (cyclo(L[dF]PW[dW]NQWV[Orn])) | – | 398 ± 94 | 3 | 9 | additive activity | 10000 | 126 ± 28 | 0.36 ± 0.07 | 1.26 ± 0.36 | 0.90 ± 0.40 | 0.23 ± 0.08 | 1.47 ± 0.28 | 1.24 ± 0.26 | 0.08 ± 0.03 | 1.02 ± 0.17 | 0.93 ± 0.16 | – | – | – | –
CC(C)C[C@@H]1NC(=O)[C@H](CCCN)NC(=O)[C@H](C(C)C)NC(=O)[C@H](Cc2ccc(O)cc2)NC(=O)[C@H](CCC(N)=O)NC(=O)[C@H](CC(N)=O)NC(=O)[C@@H](Cc2ccccc2)NC(=O)[C@H](Cc2ccccc2)NC(=O)[C@@H]2CCCN2C(=O)[C@@H](Cc2ccccc2)NC1=O [TrcA, tyrocidine A] (cyclo(V[Orn]L[dF]PF[dF]NQY)) | – | 1800 ± 319 | – | – | – | 6000 | 41 ± 12 | 0.66 ± 0.02 | 1.60 ± 0.20 | 0.95 ± 0.18 | – | – | – | 0.13 ± 0.10 | 1.35 ± 0.37 | 1.21 ± 0.29 | 1.77 ± 0.29 | > 3 | 1.99 ± 0.36 | 3.76 ± 0.65
